From patent US20230406837A1, “SULFAMATE MODULATORS OF PIN1 ACTIVITY AND USES THEREOF” (Yeda Research and Development Co., Ltd., priority 2022, published 2023)
“Also recorded” adds a separate entry of the source.

Columns and labels:
[1] = GSH consumption (reactivity) assay by LC/MS; conditions: for reactivity to GSH relative to chloroacetamide (1a): 5 mM GSH, 200 μM electrophile, pH 8, 14° C.; for covalent bond formation with GSH: assay conditions or temperatures up to 37° C. for 24 h
[2] = test system: Mino cells; test: In situ proteomic labeling with alkyne probes, in-gel fluorescence; type: cell-based; conditions: 2 h
Text: FIGS. 5A-5C: α-sulfamate acetamide 1a-aj, and 2a-2c can show up to two orders of magnitude less reactivity towards GSH than chloroacetamide. FIG. 5A: Chemical structures of model α-sulfamate/sulfonate/sulfone acetamides. FIG. 5B: Half-life (t1/2) of the model compounds (1a-1j) assessed by GSH consumption assay via LC/MS (FIG. 4B). FIG. 5C: In situ proteomic labeling with alkyne probes (2a-2c). […] A band that is selectively detected only by compound 2a is indicated by *.
Sulfamate acetamides show attenuated and tunable proteomic reactivity. To assess proteomic selectivity in cells, two sulfamate acetamides (2a and 2b) and a chloroacetamide (2c) with an alkyne functionality have been synthesized (FIG. 3 and FIG. 4A). Mino cells were treated for two hours with either DMSO or 2a-c. Then, the cells were lysed, labeled the alkynes via copper-catalyzed “click chemistry” (CuAAC) with TAMRA-azide, and imaged the adducts via in-gel fluorescence (FIG. 4C). Similar to their reactivity pattern in the GSH reactivity assay, these compounds labeled various amounts of proteins under cellular conditions.

[3] = Buffer stability assay (hydrolysis by LC/MS); type: physicochemical; conditions: for hydrolysis in PBS buffer (FIG. 13): 100 μM, pH 8, 37° C. for four days; for hydrolysis in PBS buffer: pH 8, 37° C., after 2 days
Experimental: FIG. 8: Buffer stability of model compounds. […] The percentage of hydrolysis was quantified using LC/MS at a wavelength of 220 nm.
FIG. 13: Sulfonate and sulfamate compounds. […] For compounds Sulfopin, 4a, and 4b, spectra at 220 nm were taken to show the peaks. […] “#” refers to hydrolysis product “*” refers to unidentified peak.
Reaction mixtures were kept at 37° C. with shaking.

[4] = target: T1, Pin1 (Homo sapiens, UniProt Q13526); test: In-vitro Pin1 covalent labeling by intact protein LC/MS; type: binding; parameters: The catalytic domain of Pin1 (2 μM) in 20 mM Tris, 75 mM NaCl, pH 7.5 was incubated with 2 μM Sulfamate; made in house; conditions: 2 μM compound, 2 μM Pin1, pH 7.5, 1 h, 25° C.
Experimental: Pin1 was expressed and purified as previously reported^38. The catalytic domain of Pin1 (2 μM) in 20 mM Tris, 75 mM NaCl, pH 7.5 was incubated with 2 μM Sulfamate (4a-4g) for 1 h at 25° C.
The reaction mixtures, at room temperature for various times, were injected into the LC/MS. For data analysis, the raw spectra were deconvoluted using a 20000:40000 Da (For Pin1, 10000:30000) window and 1 Da resolution. The labeling percentage for a compound was determined as the labeling of a specific compound (alone or together with other compounds) divided by the overall detected protein species.
Initially, these compounds (4a-4g; 2 μM) were incubated with Pin1 (2 μM; […] Tris buffer; pH 7.5, 1 h; 25° C.) to check covalent labeling by intact protein MS (FIG. 11B,C; FIG. 10).
Target sequence in this assay (Q13526 52-163 limits assumed): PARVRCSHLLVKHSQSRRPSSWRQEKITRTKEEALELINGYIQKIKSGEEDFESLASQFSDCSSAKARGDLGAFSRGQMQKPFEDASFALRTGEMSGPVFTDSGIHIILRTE

[5] = DTNB thiol reactivity assay; type: physicochemical; conditions: 200 μM compound, pH 7.4, 37° C.
Experimental: The compound 5,5′-dithio-bis(2-nitrobenzoic acid) (DTNB; 50 μM) was incubated with 200 μM tris(2-carboxyethyl)phosphine (TCEP) in 20 mM sodium phosphate buffer pH 7.4 and 150 mM NaCl for 5 min at room temperature, to obtain TNB^−2. […] UV absorbance was acquired every 15 min for 7 h. The assay was performed in a 384-well plate using a Tecan Spark 10M plate reader. […] Compounds were measured in triplicate. The data were fitted to a second-order reaction equation such that the rate constant (K) is the slope of ln([A][B0]/[B][A0]), where [A0] and [B0] are the initial concentrations of the compound (200 μM) and TNB^−2 (100 μM), respectively, and [A] and [B] are the remaining concentrations as a function of time as deduced from spectrometric measurements. Linear regression using Prism was performed to fit the rate against the first 7 h of measurements.

[6] = target: T1, Pin1; test: Kinetics of Pin1 binding (KI and Kinact) by LC-MS; parameters: made in house; kinact: unit not given here; conditions: for Ki: read-out: K1 value (KI)
Text: The reaction was monitored by LC-MS. FIGS. 17B and 17D. The rate constants as extrapolated from FIGS. 17A and 17C, respectively, as a function of the concentration of sulfopin and 4d.
Target sequence in this assay (Q13526 whole entry, the tested form may be a part): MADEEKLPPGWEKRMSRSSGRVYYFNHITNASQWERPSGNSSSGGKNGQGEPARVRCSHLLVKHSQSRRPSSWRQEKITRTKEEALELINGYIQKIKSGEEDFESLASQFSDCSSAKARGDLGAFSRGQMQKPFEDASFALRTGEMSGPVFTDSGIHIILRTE

[7] = target: T2, Pin1 Cys113 (Homo sapiens, UniProt Q13526); test: Competitive isoTOP-ABPP in PATU-8988T cells; type: cell-based; conditions: for peptides labeled with an H/L ratio >2: out of about 3,000 cysteines identified
T2 construct: endogenous in cells
Experimental: FIGS. 11A-11E: Sulfamate acetamides as potent and selective Pin1 inhibitors. FIG. 11A. Chemical structures of the sulfonate and sulfamate compounds (4a-4g). FIG. 11B. Deconvoluted LC/MS spectrum for Pin1 (2 μM) incubated with 4 g at pH 7.5, 25° C., 1 h. The adduct mass corresponds to a labeling event in which the sulfamate group was released. FIG. 11C. Percent of Pin1 labeling (2 μM) with the probes (4a-4g; 2 μM; y-axis) compared to their intrinsic thiol reactivity as assessed by their rate of reaction in a DTNB assay (x-axis). FIG. 11D. Cellular engagement of the Sulfamates. OCI-AML2 cells were treated with DMSO, Sulfopin or sulfamate compounds (4c, 4d, 4g) at 0.5 and 2.5 μM concentration for 4 hours. Lysates were then incubated with a Sulfopin desthiobiotin (DTB) probe (1 μM), pulled down using streptavidin beads before running a western blot against Pin1. FIG. 11E. IsoDTB ABPP experiment with sulfopin and sulfamate compound 4d. […] The labeled peptides were pull-down with streptavidin beads and analysed by LC/MS/MS (similar protocol to BTK, see FIG. 521; n=4). Proteins in the box have a heavy to light (H/L) ratio ≥2. Only peptides detected in three out of four repetitions are presented.

[8] = Metabolic stability in liver microsomes; type: in vitro ADME; conditions: LC/MS/MS
Experimental: FIG. 14: Sulfamates compounds show high metabolic stability. Compounds (Sulfopin, 4d, 4e, and 4g) were incubated in liver microsomes and injected to LC/MS/MS at indicated time points. The peak intensities of the compounds were measured in UV spectra.

[9] = Pin1 0.5 μM, 100 mM Tris buffer pH 7.4, 14° C.

T2 sequence (Q13526 whole entry): as the sequence (Q13526 whole entry, the tested form may be a part) above

Which “reactivity to GSH relative to chloroacetamide (1a)” value [1] does the source give for CNS(=O)(=O)OCC(=O)NCc1ccccc1 [Compound 1d, 2-(benzylamino)-2-oxoethyl Methylsulfamate] here?
The value was “an order of magnitude less reactivity”.

Which “reactivity to GSH relative to chloroacetamide (1a)” value [1] does the source give for O=C(COS(=O)(=O)NCc1ccccc1)NCc1ccccc1 [Compound 1e, 2-(benzylamino)-2-oxoethyl Benzylsulfamate] here?
Its value is “an order of magnitude less reactivity”.

For CS(=O)(=O)CC(=O)NCc1ccccc1 [Compound 1i, N-benzyl-2-(methylsulfonyl)acetamide], which “covalent bond formation with GSH” value [1] is on record?
Its value is “did not form a covalent bond with GSH”.

Which “covalent bond formation with GSH” value [1] does the source give for O=C(CS(=O)(=O)c1ccccc1)NCc1ccccc1 [Compound 1j, N-benzyl-2-(phenylsulfonyl)acetamide] here?
The value was “did not form a covalent bond with GSH”.

For C#Cc1ccc(NC(=O)COS(=O)(=O)NCc2ccccc2)cc1 [Compound 2a, 2-((4-ethynylphenyl)amino)-2-oxoethyl Benzylsulfamate], which “proteomic reactivity (proteins labeled)” value [2] is on record?
The value was “enriching more proteins; also recorded: labeled a distinct protein that was not labeled by the chloroacetamide”.

For C#Cc1ccc(NC(=O)COS(=O)(=O)Nc2ccccc2)cc1 [Compound 2b, 2-((4-ethynylphenyl)amino)-2-oxoethyl Phenylsulfamate], which “proteomic reactivity (proteins labeled)” value [2] is on record?
Its value is “low reactivity”.

Which “proteomic reactivity (proteins labeled)” value [2] does the source give for C#Cc1ccc(NC(=O)CCl)cc1 [Compound 2c, 2-chloro-N-(4-ethynylphenyl)acetamide] here?
Its value is “enriching more proteins”.

For CC(C)(C)CN(C(=O)COS(C)(=O)=O)C1CCS(=O)(=O)C1 (centres unmarked) [Compound 4a, 2-((1,1-dioxidotetrahydrothiophen-3-yl)(neopentyl)amino)-2-oxoethyl Methanesulfonate], which “hydrolysis in PBS buffer (FIG. 13)” value [3] is on record?
Its value is 15%.

What about the “hydrolysis in PBS buffer” value [3] of the same compound?
Its value is 15%.

What about the “Pin1 labeling by intact protein MS” value [4] of the same compound?
Its value is 18%.

With CNS(=O)(=O)OCC(=O)N(CC(C)(C)C)C1CCS(=O)(=O)C1 (centres unmarked) [Compound 4b, 2-((1,1-dioxidotetrahydrothiophen-3-yl)(neopentyl)amino)-2-oxoethyl Methylsulfamate] as the compound, how does the “Pin1 labeling by intact protein MS” value [4] read?
Its value is 16%.

For CC(C)(C)CN(C(=O)COS(=O)(=O)NCc1ccccc1)C1CCS(=O)(=O)C1 (centres unmarked) [Compound 4c, 2-((1,1-dioxidotetrahydrothiophen-3-yl)(neopentyl)amino)-2-oxoethyl Benzylsulfamate], which “thiol reactivity relative to Sulfopin” value [5] is on record?
The value was “lower thiol reactivity than Sulfopin”.

And the “Pin1 labeling by intact protein MS” value [4]?
Its value is 56%.

What does the source list for CC(C)(C)CN(C(=O)COS(=O)(=O)Nc1ccccc1)C1CCS(=O)(=O)C1 (centres unmarked) [Compound 4d, 2-((1,1-dioxidotetrahydrothiophen-3-yl)(neopentyl)amino)-2-oxoethyl Phenylsulfamate]?
binding affinity to Pin1 relative to sulfopin ([6]; KI of 4d versus sulfopin): five-times better K1 value; also recorded: five-fold higher binding affinity; kinact [6, 9]: 2.48; Ki [6, 9]: 43.6 µM; thiol reactivity relative to Sulfopin [5]: lower thiol reactivity than Sulfopin; competition ratio (H/L) of Pin1 Cys113 [7]: highest competition ratio; peptides labeled with an H/L ratio >2 [7]: six

With CC(C)(C)CN(C(=O)COS(=O)(=O)Nc1ccc(Br)cc1)C1CCS(=O)(=O)C1 (centres unmarked) [Compound 4e, 2-((1,1-dioxidotetrahydrothiophen-3-yl)(neopentyl)amino)-2-oxoethyl (4-bromophenyl)sulfamate] as the compound, how does the “thiol reactivity relative to Sulfopin” value [5] read?
The value was “lower thiol reactivity than Sulfopin”.

With O=C(COS(=O)(=O)Nc1ccccc1)N(CC1CCCCC1)C1CCS(=O)(=O)C1 (centres unmarked) [Compound 4g, 2-((cyclohexylmethyl)(1,1-dioxidotetrahydrothiophen-3-yl)amino)-2-oxoethyl Phenylsulfamate] as the compound, how does the “thiol reactivity relative to Sulfopin” value [5] read?
Its value is “slightly higher reactivity”.

What about the “Pin1 labeling by intact protein MS” value [4] of the same compound?
Its value is over 95%.

With CC(C)(C)CN(C(=O)CCl)C1CCS(=O)(=O)C1 (centres unmarked) [Sulfopin, reference compound] as the compound, how does the Ki [6, 9] read?
Its Ki is 217 µM.

And the “competition ratio (H/L) of Pin1 Cys113” value [7]?
Its value is “highest competition ratio; also recorded: more complete target engagement”.

What about the “peptides labeled with an H/L ratio >2” value [7] of the same compound?
The value was “six”.

What about the “hydrolysis in PBS buffer (FIG. 13)” value [3] of the same compound?
The value was 30%.

And the “hydrolysis in PBS buffer” value [3]?
Its value is 30%.

And the metabolic stability [8]?
Its metabolic stability is “good metabolic stability”.

And the “Pin1 labeling by intact protein MS” value [4]?
Its value is 59%.
